Test system: Pan02 tumor cells
Assay: In vivo anti-tumoral activity of Example 166 in a Pan02 tumor model
Design: species or system C57BL/6 mice
Description: Pan02 tumor cells were maintained in vitro as a monolayer culture in RPM11640 medium supplemented with 10% fetal bovine serum at 37° C. in an atmosphere of 5% CO2 in air. The cells were routinely subcultured twice weekly by trypsin-EDTA treatment. The cells in an exponential growth phase were harvested and counted for tumor inoculation. Female C57BL/6 mice were inoculated subcutaneously in the right rear flank region with Pan02 tumor cells (3×10^6) in 0.1 ml of PBS for tumor development on day 0. Tumor volumes were measured thrice per week in two dimensions using a caliper, and the volume was expressed in mm^3 using the formula: “V=(L×W×W)/2”, where V is tumor volume, L is tumor length (the longest tumor dimension) and W is tumor width (the longest tumor dimension perpendicular to L). When the mean tumor size reached approximately 100 mm^3, mice were randomly allocated into groups (10 mice per group) and treated with or without the compound of Example 166 (3, 10, 30, 100 or 300 mg/kg, po, QD, 5% DMSO/95% (10% w/v solution of HP-β-CD in water) v/v) for at least 3 weeks). Animals were checked daily for morbidity and mortality. During routine monitoring, the animals were checked for any effects on tumor growth and treatments on behavior such as mobility, food and water consumption, body weight gain/loss (body weights were measured thrice per week), eye/hair matting and any other abnormalities. Dosing as well as tumor and body weight measurements were conducted in a Laminar Flow Cabinet. The body weights and tumor volumes were monitored by using StudyDirector™ software (version 3.1.399.19).

## C[C@H](NC(=O)C1(N2CC[C@@H](Oc3cccc(C(F)(F)F)c3)C2)CC1)c1ccc(C(=O)O)cc1.Cl [Example 166, 4-[(1S)-1-[[1-[(3R)-3-[3-(Trifluoromethyl)phenoxy]pyrrolidin-1-yl]cyclopropane-1-carbonyl]amino]ethyl]benzoic acid, hydrochloride]
3 mg/kg po QD, day 0
  Tumor Growth Inhibition TGI (%): 0.0%
3 mg/kg po QD, day 4
  Tumor Growth Inhibition TGI (%): 8.2%
3 mg/kg po QD, day 7
  Tumor Growth Inhibition TGI (%): 2.9%
3 mg/kg po QD, day 9
  Tumor Growth Inhibition TGI (%): 2.3%
3 mg/kg po QD, day 11
  Tumor Growth Inhibition TGI (%): −8.0%
3 mg/kg po QD, day 14
  Tumor Growth Inhibition TGI (%): −5.6%
3 mg/kg po QD, day 16
  Tumor Growth Inhibition TGI (%): 10.7%
3 mg/kg po QD, day 18
  Tumor Growth Inhibition TGI (%): 9.1%
3 mg/kg po QD, day 21
  Tumor Growth Inhibition TGI (%): −1.4%
10 mg/kg po QD, day 0
  Tumor Growth Inhibition TGI (%): 0.0%
10 mg/kg po QD, day 4
  Tumor Growth Inhibition TGI (%): 14.3%
10 mg/kg po QD, day 7
  Tumor Growth Inhibition TGI (%): −2.3%
10 mg/kg po QD, day 9
  Tumor Growth Inhibition TGI (%): 0.8%
10 mg/kg po QD, day 11
  Tumor Growth Inhibition TGI (%): 2.4%
10 mg/kg po QD, day 14
  Tumor Growth Inhibition TGI (%): 11.1%
10 mg/kg po QD, day 16
  Tumor Growth Inhibition TGI (%): 21.1%
10 mg/kg po QD, day 18
  Tumor Growth Inhibition TGI (%): 22.4%
10 mg/kg po QD, day 21
  Tumor Growth Inhibition TGI (%): 16.2%
30 mg/kg po QD, day 0
  Tumor Growth Inhibition TGI (%): 0.0%
30 mg/kg po QD, day 4
  Tumor Growth Inhibition TGI (%): 17.5%
30 mg/kg po QD, day 7
  Tumor Growth Inhibition TGI (%): 19.0%
30 mg/kg po QD, day 9
  Tumor Growth Inhibition TGI (%): 16.3%
30 mg/kg po QD, day 11
  Tumor Growth Inhibition TGI (%): −8.2%
30 mg/kg po QD, day 14
  Tumor Growth Inhibition TGI (%): 5.7%
30 mg/kg po QD, day 16
  Tumor Growth Inhibition TGI (%): 9.7%
30 mg/kg po QD, day 18
  Tumor Growth Inhibition TGI (%): 13.9%
30 mg/kg po QD, day 21
  Tumor Growth Inhibition TGI (%): 7.4%
100 mg/kg po QD, day 0
  Tumor Growth Inhibition TGI (%): 0.0%
100 mg/kg po QD, day 4
  Tumor Growth Inhibition TGI (%): 17.1%
100 mg/kg po QD, day 7
  Tumor Growth Inhibition TGI (%): 21.4%
100 mg/kg po QD, day 9
  Tumor Growth Inhibition TGI (%): 20.8%
100 mg/kg po QD, day 11
  Tumor Growth Inhibition TGI (%): 23.7%
100 mg/kg po QD, day 14
  Tumor Growth Inhibition TGI (%): 44.3%
100 mg/kg po QD, day 16
  Tumor Growth Inhibition TGI (%): 42.2%
100 mg/kg po QD, day 18, hydrochloride
  Tumor Growth Inhibition TGI (%): 48.2%
100 mg/kg po QD, day 21
  Tumor Growth Inhibition TGI (%): 42.6%
300 mg/kg po QD, day 0
  Tumor Growth Inhibition TGI (%): 0.0%
300 mg/kg po QD, day 4
  Tumor Growth Inhibition TGI (%): 14.3%
300 mg/kg po QD, day 7
  Tumor Growth Inhibition TGI (%): −2.5%
300 mg/kg po QD, day 9
  Tumor Growth Inhibition TGI (%): −0.7%
300 mg/kg po QD, day 11
  Tumor Growth Inhibition TGI (%): −5.6%
300 mg/kg po QD, day 14
  Tumor Growth Inhibition TGI (%): 11.8%
300 mg/kg po QD, day 16
  Tumor Growth Inhibition TGI (%): 24.7%
300 mg/kg po QD, day 18, hydrochloride
  Tumor Growth Inhibition TGI (%): 32.9%
300 mg/kg po QD, day 21
  Tumor Growth Inhibition TGI (%): 32.8%

From patent US12527779B2, “Prostaglandin E2 (PGE2) EP4 receptor antagonists” (Domain Therapeutics, priority 2019, dated 2026)
